Measurements: US6605641B2, “20-HETE antagonists and agonists” (MCW Research Foundation, priority 1998, dated 2003)

Experiments:
[1] = tested on: isolated, pressured rat renal interlobular arteries; test: Isolated vessel studies: vasoconstrictor response (vascular diameter) to cumulative doses of 20-HETE analogs; assay type: cell-based
Description: General. Experiments were performed on 10 to 12-week old male Sprague-Dawley rats purchased from Harlan Sprague-Dawley Laboratories (Indianapolis, Ind.). The rats were housed in the animal care facility at the Medical College of Wisconsin, which is approved by the American Association for the Accreditation of Laboratory Animal Care. The animals had free access to food and water. All protocols involving animals received approval by the Animal Care Committee of the Medical College of Wisconsin.
(§1) Isolated vessel studies. Interlobular arterioles (70-120 μm inner diameter) were microdissected from the kidneys of rats. The vessels were mounted on glass micropipettes in a perfusion chamber containing physiological saline solution equilibrated with a 95% O2-5% CO2 gas mixture and maintained at 37° C. The vessel were secured to the pipettes and side branches were tied off with 10-0 silk suture. The inflow pipette was connected to a pressurized reservoir to control of intraluminal perfusion pressure, which was monitored using a transducer (Cobe, Lakewood, Colo.). The vessels were stretched to in vivo length measured before microdissection. The outflow cannula was clamped off and intraluminal pressure was maintained at 90 mm Hg during the experiment. Vascular diameters were measured with a video system composed of a stereo microscope (Carl Zeiss, Inc., Germany), a CCTV television camera (KP-130AU, Hitachi, Japan), a videocassette recorder (AG-7300, Panasonic, Japan), a television monitor (CVM-1271, Sony, Japan), and a video measuring system (VIA-100, Boeckeler Instrument Co., Tucson, Ariz.).
(§2) The composition of the perfusate and the bath was (in mM): 119 NaCl, 4.7 KCl, 1.17 MgSO4, 1.6 CaCl2, 12 NaHCO3, 1.18 NaH2PO4, 0.03 EDTA and 10 glucose, pH 7.4. Indomethacin (5 μM), baicalein (0.5 μM) and 17-ODYA (1 μM) were added to the bath to block the endogenous formation and metabolism of eicosanoids via the cyclooxygenase, lipoxygenase and cytochrome P450 pathways. After the equilibration period, cumulative dose response curves were generated for each of the 20-HETE analogs.
Effect of the position of the hydroxyl group on the vasoconstrictor response to 20-HETE. These experiments examined the effects of increasing concentrations of 5(S)-, 8(S)-, 12(S)-, 15(S)-, and 19(S)-HETE on the diameter of isolated, pressured rat renal interlobular arteries. All of these analogs have the same number of carbons, double bonds and molecular weight as 20-HETE (FIG. 1). The major difference between these compounds and 20-HETE is the position of the OH group along the carbon chain. Additional experiments were performed with arachidonic acid and 20-carboxyarachidonic acid, which are structurally similar to 20-HETE but lack a hydroxyl group on the 20th carbon and 20-hydroxyeicosa-6, 15-dienoic acid (reverse 20-HETE) which has the carboxy- and hydroxy-moieties on the 1st and 20th carbons reversed. Cumulative dose response curves were generated for each compound (10^−8 to 10^−6 M) in the presence of indomethacin, baicalein, and 17-ODYA. Vascular diameters were recorded 2 to 3 minutes after the addition of the compounds to the bath.
Effect of the double bonds and carbon chain length to the vasoconstrictor response to 20-HETE. We next examined the importance of the double bonds and the length of the carbon chain to the vasoconstrictor response to 20-HETE. In these studies, the double bonds in the 20-HETE molecule were removed creating partial and saturated 20-HETE derivatives (20-hydroxyeicosa-6(Z),15(Z) dienoic acid; 20-hydroxyeicosanoic acid, FIG. 1). 20-HETE was also shortened by one carbon, creating a 19-carbon analog (19-hydroxynonadeca-5(Z),8(Z),11(Z),14(Z)-tetraenoic acid, FIG. 1) and double bonds were removed, creating a saturated 19-carbon analog (19 hydroxynonadecanoic acid, FIG. 1). […]

[2] = tested on: renal, cerebral and skeletal muscle arterioles; conditions: read-out: EC50 as constrictor; cited from earlier work
LLC-PK1 cells = conditions: 20-HETE 10^−9 M; cited from earlier work
[3] = tested on: vascular smooth muscle cells; conditions: read-out: EC50 as constrictor; cited from earlier work
OK cells = conditions: 20-HETE 10^−9 M; cited from earlier work
[4] = tested on: vasoconstrictor response to 20-HETE in isolated renal interlobular arteries; test: 20-HETE antagonist activity: dose response curves to 20-HETE before and after addition of analog; assay type: cell-based, rat; conditions: analog 0.5 or 1 μM in bath, 20-HETE 10^−8 to 10^−6 M
Description: We also disclose below a test for 20-HETE antagonist activity. In this analysis, test compounds were analyzed by a cumulative dose response curve to 20-HETE generated before and after the addition of the test compound. […] We envision suitable antagonists as similarly blocking the vasoconstrictor response.
as §1, §2
20-HETE antagonist activity. […] In these experiments, cumulative dose response curves to 20-HETE (10^−8 to 10^−6 M) were generated before and after addition of 5(S)-HETE (0.5 μM), 8(S)-HETE (1 μM), 12(S)-HETE (0.5 μM), 15(S)-HETE (1 μM), 19(S)-HETE (1 μM), the C19-analog (1 μM), arachidonic acid (1 μM), 20-carboxy-arachidonic acid (1 μM), reverse 20-HETE (1 μM), saturated 20-HETE (1 μM), and the saturated C19-analog (1 μM) to the bath. Vascular diameters were recorded 2 to 3 minutes after the addition of each dose of 20-HETE to the bath.

Row | Compound | threshold concentration that reduced vascular diameter ([1]; renal interlobular arterioles) | EC50 [2] | growth of cultured cells (LLC-PK1 cells) | EC50 [3] | growth of cultured cells (OK cells) | effect on the diameter of renal interlobular arteries (vasoconstrictor/agonist activity) ([1]; 10^−8 to 10^−6 M (up to 1 μM), indomethacin, baicalein, 17-ODYA present, diameter 2 to 3 minutes after addition) | melting point | effect of analog on the vasoconstrictor response to 20-HETE (antagonist activity) [4] | effect of analog on the vasoconstrictor response to 20-HETE (antagonist activity) ([4]; listed as saturated C20-analog)
1 | O=C(O)CCC/C=C\C/C=C\C/C=C\C/C=C\CCCCCO [20-HETE, 20-hydroxyeicosatetraenoic acid] | 10 nM | < 10 nM | promotes the growth | < 10 nM | promotes the growth | – | – | – | –
2 | O=C(O)CCCCCCCCCCCCCCCCCCCO [saturated 20-HETE derivative, 20-Hydroxyeicosanoic Acid] | – | – | – | – | – | no effect | 86 °C | exhibited competitive antagonist activity | not as effective as the parent compounds
